From the supplement of paper PMC10307832

Legend:
Assay in all cases: relative viability (nuclei count vs DMSO), 5 days (fraction); higher = more cells survive
[1] = compound: CC[C@@H](C)CNCC(=O)N1CCC2=C([C@@H]1COC3=CC=CC(=C3)C)C=CS2 [RU-SKI 43] + CC(=O)Nc1cccc(-n2c(=O)n(C3CC3)c(=O)c3c(Nc4ccc(I)cc4F)n(C)c(=O)c(C)c32)c1 [Trametinib] (partner 0.02 µM)
Procedure, shortened: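 Relative viability was taken as the ratio of nuclei in treated wells to nuclei in vehicle wells. Lung cancer cell lines in 1536-well plates received compounds by pin tool one day after seeding, either one drug alone or a fixed anchor-drug dose plus five library-drug doses (not always all listed) in √10 steps. Nuclei were counted on 4× images after 5 days of treatment, and values are medians of duplicate plates.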

[2] = compound: CC[C@@H](C)CNCC(=O)N1CCC2=C([C@@H]1COC3=CC=CC(=C3)C)C=CS2 [RU-SKI 43]
Procedure, shortened: (§1)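 Five library-drug doses spaced by √10 were pinned onto vehicle-anchored 1536-well plates of lung cancer cell lines that had been kept overnight at 37 °C. Cells went 5 days without medium change, then were fixed, permeabilised and Hoechst-stained together, imaged at 4× and counted by MetaXpress. Viability is the ratio of treated-well to vehicle-well nuclei, taken as a median over plates. Plates required control CV below 25% and at least one doubling.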

[3] = compound: Cn1cc(-c2cnc3ccc4ccc(CS(=O)(=O)NCc5ccccn5)cc4c(=O)c3c2)cn1 [MK-8033]
Procedure, shortened: as §1

[4] = compound: CCc1c2c(nc3ccc(OC(=O)N4CCC(N5CCCCC5)CC4)cc13)-c1cc3c(c(=O)n1C2)COC(=O)[C@]3(O)CC [Irinotecan]
Procedure, shortened: as §1

Row | Cell Line | relative viability ([1]; first compound 0.1 µM) | relative viability ([1]; first compound 0.3162 µM) | relative viability ([1]; first compound 1 µM) | relative viability ([1]; first compound 3.162 µM) | relative viability ([1]; first compound 10 µM) | relative viability ([2]; 0.1 µM) | relative viability ([2]; 0.3162 µM) | relative viability ([2]; 1 µM) | relative viability ([2]; 3.162 µM) | relative viability ([2]; 10 µM) | relative viability ([3]; 0.02 µM) | relative viability ([3]; 0.06325 µM) | relative viability ([3]; 0.2 µM) | relative viability ([3]; 0.6325 µM) | relative viability ([3]; 2 µM) | relative viability ([4]; 0.6325 µM) | relative viability ([4]; 2 µM) | relative viability ([4]; 6.325 µM) | relative viability ([4]; 20 µM)
1 | NCI-H1650 | 0.556 | 0.703 | 0.533 | 0.712 | 0.55 | 0.942 | 0.999 | 1.04 | 0.977 | 0.853 | 0.942 | 0.714 | 0.853 | 0.842 | 0.848 | 0.677 | 0.836 | 0.489 | 0.21
2 | NCI-H2170 | 0.975 | 1.39 | 1.04 | 0.908 | 0.946 | 0.977 | 1.06 | 1.01 | 1.04 | 0.986 | 0.991 | 0.925 | 0.918 | 0.948 | 0.971 | 0.959 | 0.946 | 0.462 | 0.223
3 | NCI-H1975 | 0.311 | 0.351 | 0.355 | 0.296 | 0.257 | 1.07 | 1.25 | 1.05 | 1.01 | 0.922 | 0.892 | 0.905 | 0.862 | 0.854 | 0.931 | 0.894 | 1.04 | 0.622 | 0.196
4 | NCI-H1437 | 0.492 | 0.555 | 0.59 | 0.527 | 0.363 | 1.07 | 1.04 | 1.14 | 1.04 | 0.986 | 0.964 | 0.972 | 0.919 | 1.01 | 0.93 | 0.824 | 0.719 | 0.426 | 0.289
5 | A-427 | 0.718 | 0.694 | 0.788 | 0.744 | 0.706 | 1.09 | 1.02 | 1.12 | 0.94 | 1.03 | 1.05 | 0.963 | 0.877 | 1.06 | 0.96 | – | 0.844 | 0.299 | 0.21
6 | NCI-H2405 | 0.645 | 0.681 | 0.612 | 0.713 | 0.581 | 0.996 | 0.977 | 1.05 | 0.96 | 0.967 | 1.02 | 0.944 | 0.94 | 1.02 | 1.01 | – | 0.953 | 0.426 | 0.217
7 | SK-MES-1 | 0.482 | 0.597 | 0.522 | 0.52 | 0.474 | 1.05 | 1.16 | 1.01 | 1.05 | 0.977 | 0.925 | 0.935 | 0.942 | 0.96 | 0.998 | 0.873 | 0.799 | 0.327 | 0.236
8 | LC-2-ad | 0.951 | 1.08 | 0.985 | 0.928 | 0.847 | 0.967 | 1.02 | 1.16 | 0.963 | 0.932 | 0.953 | 0.938 | 0.936 | 1 | 0.927 | 0.47 | 0.492 | 0.299 | 0.191
9 | NCI-H1944 | 0.349 | 0.406 | 0.417 | 0.387 | 0.388 | 1.01 | 0.98 | 1.08 | 0.968 | 0.932 | 0.927 | 0.768 | 0.982 | 0.968 | 1.03 | 0.67 | 0.559 | 0.244 | 0.194
10 | NCI-H322M | 0.492 | 0.553 | 0.534 | 0.565 | 0.553 | 0.985 | 0.945 | 1.05 | 0.939 | 0.978 | 0.952 | 0.766 | 0.878 | 0.957 | 0.929 | 0.8 | 0.754 | 0.503 | 0.385
11 | HCC-44 | 1.11 | 1.06 | 1.17 | 1.15 | 1.07 | 1.05 | 0.972 | 1.09 | 0.933 | 0.969 | 1.05 | 1.02 | 0.949 | 1.01 | 0.957 | 0.718 | 0.915 | 0.409 | 0.331
12 | HCC-827 | 0.501 | 0.52 | 0.545 | 0.574 | 0.46 | 1.06 | 1.01 | 1.1 | 1.05 | 1.06 | 1.01 | – | 1.01 | 1.01 | 1.05 | 0.938 | 0.779 | 0.263 | 0.296
13 | SW 1573 | 0.586 | 0.591 | 0.584 | 0.567 | 0.39 | 1.01 | 1.16 | 0.954 | 1.07 | 0.802 | 1.05 | 0.84 | 0.917 | 0.969 | 0.893 | 0.571 | 0.709 | 0.271 | 0.142
14 | NCI-H23 | 0.395 | 0.392 | 0.38 | 0.443 | 0.348 | 1.03 | 1.18 | 1.1 | 1.1 | 0.926 | 0.977 | 0.897 | 0.893 | 1.06 | 0.86 | 0.693 | 0.73 | 0.332 | 0.234
15 | NCI-H2342 | 0.764 | – | 0.842 | 0.896 | 0.778 | 0.895 | 0.773 | 0.972 | 1.18 | 0.989 | 0.988 | 1.11 | 1.12 | 1.13 | 1.13 | 0.938 | 0.97 | 1 | 0.575
16 | EMC-BAC-2 | 0.857 | 0.9 | 0.939 | 0.861 | 0.749 | 1.04 | 0.983 | 1.28 | 0.97 | 0.971 | 1.13 | 0.904 | 0.916 | 1.03 | 0.947 | 0.562 | 0.616 | 0.328 | 0.231
17 | EPLC-272H | 0.294 | 0.294 | 0.552 | 0.296 | 0.278 | 1 | 0.905 | 1.07 | 0.857 | 0.915 | 0.923 | 0.745 | 0.85 | 0.991 | 0.76 | 0.419 | 0.665 | 0.282 | 0.243
